Test system: KRAS patient-derived spheroids with HUVEC/MSC, viability
Assay: Anticancer human tumor 519858-162-T-J1-PDC patient-derived colon adenocarcinoma cell line growth inhibition [KRAS2]
Conditions: for IC50: curve of first compound; for viability, T/C: stronger effect = lower value
Procedure, shortened: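 KRAS-mutant tumor cells were grown as spheroids with HUVEC endothelial cells and human MSCs as stroma. Targeted agents were tested alone and with KRAS pathway inhibitors. Doses started at or near clinical Cmax, or 10 microM, descending half-log.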

[1] = second compound 0.1 µM, first compound 0.000316 µM
[2] = second compound 0.1 µM, first compound 0.001 µM
[3] = second compound 0.1 µM, first compound 0.00316 µM
[4] = second compound 0.1 µM, first compound 0.01 µM
[5] = second compound 0.1 µM, first compound 0.0316 µM
[6] = second compound 0.1 µM, first compound 0.1 µM
[7] = second compound 0.316 µM, first compound 0.000316 µM
[8] = second compound 0.316 µM, first compound 0.001 µM
[9] = second compound 0.316 µM, first compound 0.00316 µM
[10] = second compound 0.316 µM, first compound 0.01 µM
[11] = second compound 0.316 µM, first compound 0.0316 µM
[12] = second compound 0.316 µM, first compound 0.1 µM
[13] = second compound 1 µM, first compound 0.000316 µM
[14] = second compound 1 µM, first compound 0.001 µM
[15] = second compound 1 µM, first compound 0.00316 µM
[16] = second compound 1 µM, first compound 0.01 µM
[17] = second compound 1 µM, first compound 0.0316 µM
[18] = second compound 1 µM, first compound 0.1 µM
[19] = second compound 3.16 µM, first compound 0.000316 µM
[20] = second compound 3.16 µM, first compound 0.001 µM
[21] = second compound 3.16 µM, first compound 0.00316 µM
[22] = second compound 3.16 µM, first compound 0.01 µM
[23] = second compound 3.16 µM, first compound 0.0316 µM
[24] = second compound 3.16 µM, first compound 0.1 µM
[25] = second compound 10 µM, first compound 0.000316 µM
[26] = second compound 10 µM, first compound 0.001 µM
[27] = second compound 10 µM, first compound 0.00316 µM
[28] = second compound 10 µM, first compound 0.01 µM
[29] = second compound 10 µM, first compound 0.0316 µM
[30] = second compound 10 µM, first compound 0.1 µM
[31] = second compound 0.1 µM, first compound 0.316 µM
[32] = second compound 0.1 µM, first compound 1 µM
[33] = second compound 0.1 µM, first compound 3.16 µM
[34] = second compound 0.1 µM, first compound 10 µM
[35] = second compound 0.316 µM, first compound 0.316 µM
[36] = second compound 0.316 µM, first compound 1 µM
[37] = second compound 0.316 µM, first compound 3.16 µM
[38] = second compound 0.316 µM, first compound 10 µM
[39] = second compound 1 µM, first compound 0.316 µM
[40] = second compound 1 µM, first compound 1 µM
[41] = second compound 1 µM, first compound 3.16 µM
[42] = second compound 1 µM, first compound 10 µM
[43] = second compound 3.16 µM, first compound 0.316 µM
[44] = second compound 3.16 µM, first compound 1 µM
[45] = second compound 3.16 µM, first compound 3.16 µM
[46] = second compound 3.16 µM, first compound 10 µM
[47] = second compound 10 µM, first compound 0.316 µM
[48] = second compound 10 µM, first compound 1 µM
[49] = second compound 10 µM, first compound 3.16 µM
[50] = second compound 10 µM, first compound 10 µM
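Note: compound exposure lasted seven days before readout.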
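Throughout, for viability, T/C: 100% = DMSO vehicle control viability.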

CC(C)n1nc(-c2ccc3oc(N)nc3c2)c2c(N)ncnc21 + CC1OCC2(CCN(c3cnc(Sc4ccnc(N)c4Cl)c(N)n3)CC2)C1N
IC50 (second compound 0.1 µM): > 100 nM
IC50 (second compound 0.316 µM): > 100 nM
IC50 (second compound 1 µM): > 100 nM
IC50 (second compound 3.16 µM): > 100 nM
IC50 (second compound 10 µM): > 100 nM
viability, T/C [1]: 92.4%
viability, T/C [2]: 90.3%
viability, T/C [3]: 100%
viability, T/C [4]: 89.7%
viability, T/C [5]: 86.2%
viability, T/C [6]: 77%
viability, T/C [7]: 104%
viability, T/C [8]: 85.6%
viability, T/C [9]: 88.6%
viability, T/C [10]: 60.8%
viability, T/C [11]: 71.3%
viability, T/C [12]: 65.5%
viability, T/C [13]: 86.5%
viability, T/C [14]: 84.9%
viability, T/C [15]: 78%
viability, T/C [16]: 102%
viability, T/C [17]: 89.7%
viability, T/C [18]: 80.7%
viability, T/C [19]: 60.2%
viability, T/C [20]: 91.6%
viability, T/C [21]: 90.1%
viability, T/C [22]: 93.9%
viability, T/C [23]: 91.8%
viability, T/C [24]: 92.9%
viability, T/C [25]: 76.8%
viability, T/C [26]: 85.7%
viability, T/C [27]: 89.2%
viability, T/C [28]: 105%
viability, T/C [29]: 112%
viability, T/C [30]: 100%

CC1(C)CCC(CN2CCN(c3ccc(C(=O)NS(=O)(=O)c4ccc(NCC5CCOCC5)c([N+](=O)[O-])c4)c(Oc4cnc5[nH]ccc5c4)c3)CC2)=C(c2ccc(Cl)cc2)C1 + CC1OCC2(CCN(c3cnc(Sc4ccnc(N)c4Cl)c(N)n3)CC2)C1N
IC50 (second compound 0.1 µM): > 10000 nM
IC50 (second compound 0.316 µM): > 10000 nM
IC50 (second compound 1 µM): 4320 nM
IC50 (second compound 3.16 µM): 2980 nM
IC50 (second compound 10 µM): 3650 nM
viability, T/C [5]: 81.4%
viability, T/C [6]: 93.4%
viability, T/C [31]: 91.2%
viability, T/C [32]: 82.3%
viability, T/C [33]: 72.6%
viability, T/C [34]: 78.2%
viability, T/C [11]: 72.6%
viability, T/C [12]: 71.3%
viability, T/C [35]: 89.1%
viability, T/C [36]: 69.5%
viability, T/C [37]: 67.8%
viability, T/C [38]: 57.4%
viability, T/C [17]: 65.7%
viability, T/C [18]: 74.5%
viability, T/C [39]: 42.8%
viability, T/C [40]: 58.7%
viability, T/C [41]: 59.9%
viability, T/C [42]: 23.5%
viability, T/C [23]: 48.8%
viability, T/C [24]: 58.4%
viability, T/C [43]: 61.7%
viability, T/C [44]: 62.8%
viability, T/C [45]: 60.2%
viability, T/C [46]: 29.9%
viability, T/C [29]: 89.7%
viability, T/C [30]: 66.9%
viability, T/C [47]: 74.8%
viability, T/C [48]: 61.6%
viability, T/C [49]: 60.6%
viability, T/C [50]: 23.5%

COc1cc2nccc(Oc3ccc(NC(=O)C4(C(=O)Nc5ccc(F)cc5)CC4)cc3)c2cc1OC + CC1OCC2(CCN(c3cnc(Sc4ccnc(N)c4Cl)c(N)n3)CC2)C1N
IC50 (second compound 0.1 µM): > 10000 nM
IC50 (second compound 0.316 µM): > 10000 nM
IC50 (second compound 1 µM): > 10000 nM
IC50 (second compound 3.16 µM): > 10000 nM
IC50 (second compound 10 µM): > 10000 nM
viability, T/C [5]: 68.4%
viability, T/C [6]: 72.7%
viability, T/C [31]: 83.2%
viability, T/C [32]: 84.7%
viability, T/C [33]: 94%
viability, T/C [34]: 130%
viability, T/C [11]: 64.3%
viability, T/C [12]: 62.7%
viability, T/C [35]: 78.9%
viability, T/C [36]: 92.6%
viability, T/C [37]: 150%
viability, T/C [38]: 96.4%
viability, T/C [17]: 64.4%
viability, T/C [18]: 74.4%
viability, T/C [39]: 90%
viability, T/C [40]: 93.1%
viability, T/C [41]: 143%
viability, T/C [42]: 85.8%
viability, T/C [23]: 57.9%
viability, T/C [24]: 68.1%
viability, T/C [43]: 88.5%
viability, T/C [44]: 71.9%
viability, T/C [45]: 80.7%
viability, T/C [46]: 99.4%
viability, T/C [29]: 78.2%
viability, T/C [30]: 92.5%
viability, T/C [47]: 110%
viability, T/C [48]: 103%
viability, T/C [49]: 107%
viability, T/C [50]: 70.6%

Cn1ncnc1[C@H]1c2n[nH]c(=O)c3cc(F)cc(c23)N[C@@H]1c1ccc(F)cc1 + CC1OCC2(CCN(c3cnc(Sc4ccnc(N)c4Cl)c(N)n3)CC2)C1N
IC50 (second compound 0.1 µM): > 100 nM
IC50 (second compound 0.316 µM): > 100 nM
IC50 (second compound 1 µM): > 100 nM
IC50 (second compound 3.16 µM): > 100 nM
IC50 (second compound 10 µM): > 100 nM
viability, T/C [1]: 81.5%
viability, T/C [2]: 81.4%
viability, T/C [3]: 91.9%
viability, T/C [4]: 88.9%
viability, T/C [5]: 81.5%
viability, T/C [6]: 101%
viability, T/C [7]: 68%
viability, T/C [8]: 87.3%
viability, T/C [9]: 77%
viability, T/C [10]: 56.7%
viability, T/C [11]: 77.3%
viability, T/C [12]: 80.2%
viability, T/C [13]: 99.4%
viability, T/C [14]: 58.1%
viability, T/C [15]: 82.4%
viability, T/C [16]: 65.5%
viability, T/C [17]: 59.1%
viability, T/C [18]: 82.9%
viability, T/C [19]: 57.1%
viability, T/C [20]: 49.4%
viability, T/C [21]: 59.5%
viability, T/C [22]: 53.7%
viability, T/C [23]: 59.9%
viability, T/C [24]: 75.1%
viability, T/C [25]: 62%
viability, T/C [26]: 68.4%
viability, T/C [27]: 84.7%
viability, T/C [28]: 65.7%
viability, T/C [29]: 65.4%
viability, T/C [30]: 65.8%

— PubChem BioAssay AID1963872 (Molecular Pharmacology Branch, DTP, NCI, 2024)
